This is an account of results in paper PMC3608532, “Characterization of a Single-Chain Variable Fragment Recognizing a Linear Epitope of Aβ: A Biotechnical Tool for Studies on Alzheimer’s Disease?” (PLoS ONE, 2013).

One experiment addresses Aβ(2-8). Put plainly: SPR binding kinetics to immobilized Aβ(2-8). The protocol:
Binding kinetics were determined by SPR using a Biacore™ X (GE Healthcare, UK). Synthetic Aβ peptides were dissolved in 10 mM NaAc, pH 4.0. The CM5 sensor chip surface (GE Healthcare, UK) was activated using N-ethyl-N′-3 […] carbodiimide (EDC) and N-hydroxysuccinimide (NHS) chemistry followed by 2-(2-pyridinyldithio)ethaneamine hydrochloride (PDEA), in order to introduce a reactive thiol group. Aβ was coupled via the C-terminal cysteine to the chip at a flow rate of 5 µl/min, and the remaining active groups were blocked by injecting cysteine. The immobilization procedure was performed according to manufacturer’s recommendation. All kinetic analyses were performed at a flow rate of 20 µl/min in PBS. Varying concentrations of scFv-IC16 (10 to 5000 nM) and IC16 (10 to 1000 nM) were injected. […] When required, the surface was regenerated by injecting 20 µl 50 mM glycine, pH 11.0. The data evaluation was performed using Biaevaluation Software 4.1.1. ScFv-IC16 data were fitted according to the Langmuir 1∶1 binding model, whereas IC16 data were fitted according to the bivalent binding model. Standard errors of equilibrium dissociation constants (KD) were calculated using standard errors of the corresponding association and dissociation rate constants.

For another experiment, the system named is Aβ(1-42) monomers. Description: ELISA binding to Aβ(1-42) monomers. As to conditions: 250 ng/well. Set-up: species or system human. Here is the method:
1 mg of Aβ(1-42) or N-terminally/C-terminally biotinylated Aβ(1-42) was dissolved in 1 ml 1,1,1,3,3,3-hexafluorosiopropanol (HFIP) and incubated overnight at room temperature. Afterwards, Aβ(1-42) was mixed in the favored ratio with N-terminally/C-terminally biotinylated Aβ(1-42) and aliquoted. HFIP was evaporated using a SpeedVac (Concentrator 5301, Eppendorf, Germany) at room temperature for 30 min. To evaporate remaining HFIP, the sample was incubated overnight at room temperature with an open lid.
The preparation of Aβ(1-42) monomers and oligomers was carried out by size exclusion chromatography (SEC) as already described by Johansson et al with minor modifications. 250 µg of Aβ peptide was dissolved in 130 µl SEC buffer (50 mM NaPi, pH 7.4; 150 mM NaCl; 0.6% Tween-20) and briefly centrifuged (1 min, 16 100×g, room temperature) to remove insoluble fibrillar material. 100 µl of the supernatant was applied on a Superdex75 10/300 column (GE Healthcare, UK) connected to an Äkta purifier system (GE Healthcare, UK). The sample was eluted at a flow rate of 0.6 ml per min at room temperature and detected at wavelengths of 214, 250 and 278 nm. […] The concentration of the Aβ preparations was determined using the Micro BCA Protein Assay Kit (Thermo Scientific, Waltham, MA, USA). […] The samples were measured at a wavelength of 570 nm with a Polarstar Optima plate reader (BMG, Ortenberg, Germany). […]

Experiment [1] deals with Aβ naturally secreted by 7PA2 cells. Description: Immunoprecipitation of cell culture derived Aβ. The experiment is classed as binding. As to conditions: scFv-IC16-NHS-Sepharose, Western blot with 4G8. The protocol: Purified scFv-IC16 was dialyzed against PBS and coupled to NHS-Sepharose (GE, Buckinghamshire, UK) according to the manufacturers recommendations. Conditioned medium (CM) was prepared from confluent wild type CHO cells or 7PA2 cells cultured in DMEM (Life Technologies, UK) in presence or absence of FCS. Aβ was immune-precipitated from cleared CM with scFv-IC16-NHS-Sepharose overnight at 4°C. After washing with PBS, captured proteins were separated by 10–20% tricine peptide PAGE (Biorad, Hercules, CA) and transferred onto a 0.2 µm nitrocellulose membrane at 400 mA for 2 h. The filter was boiled for 5 min in PBS [42] and blocked overnight at 4°C with 5% fat-free milk in PBS containing 0.05% Tween 20 (PBS-T). After washing in PBS-T, the membrane was probed with 1∶200 diluted monoclonal 4G8 (Signet, Dedhem, MA). Bound antibody was detected with horseradish peroxidase conjugated goat anti-mouse Ig (at 1∶25000) (Thermo Scientific, Bonn, Germany). Subsequently, the Amersham ECL Western Blotting Detection Reagent (GE, Buckinghamshire, UK) was applied for visualization.

Setting [2] is: SPR Biacore X, CM5 chip, PBS, 25°C, global fit, scFv-IC16 Langmuir 1:1 model, IC16 bivalent model, ± standard error, SEM.

“scFv-IC16: single-chain variable fragment (VH-(Gly4Ser)3-VL, His6- and Myc-tag) derived from Aβ binding monoclonal antibody IC16, expressed in E. coli” showed a Kd on Aβ(2-8) (SPR Biacore X, CM5 chip, PBS, 25°C, global fit, scFv-IC16 Langmuir 1:1 model, IC16 bivalent model) of 112 nM. Also, in the experiment on Aβ(2-8) (setting [2]), the k off is reported as 7.65±0.03×10^−3 s^-1 and the k on is given as 6.84±0.03×10^4 M^-1 s^-1. This substance also came in with a Kd on Aβ(2-8) (SPR, Langmuir 1:1 binding model) of approximately 112 nM. Also, the “ELISA binding to Aβ monomers, C-terminal biotin tag” value with Aβ(1-42) monomers (100% C-terminally biotinylated monomers, p = 0.038 versus N-bio oligomers) is given as “very similar to Aβ oligomers”. The “ELISA binding to Aβ monomers, N-terminal biotin tag” value with Aβ(1-42) monomers (100% N-terminally biotinylated monomers on streptavidin plate) is “not detected”. Further, in experiment [1] (7PA2 conditioned medium containing FCS, overnight 4°C), the “immunoprecipitation of monomeric Aβ” value is “efficiently precipitated”. Further, the “immunoprecipitation of lower oligomeric Aβ species” value in experiment [1] (conditioned medium of 7PA2 cells cultured without FCS) was “efficiently precipitated”.
